These results are taken from patent publication US9981963B2, “3-(1H-pyrazol-4-yl)-1H-pyrrolo[2,3-c]pyridine derivatives as NIK inhibitors” (Janssen Pharmaceutica NV, priority 2013, dated 2018).

The structures appear in SMILES notation.

Broadly, the EC50 is the concentration at which the effect is half-maximal. Read a low EC50 as greater potency. The IC50 is the concentration needed to halve the response being measured.

In one assay the test system is LP-1 cells. Kind of assay: Biological Assay C: antiproliferative activity on LP-1 cells (CellTiter-Glo). The class given is cell-based. The following applies: Homo sapiens, 72 hr of treatment, averaged values. The method, then: (§1) Determination of Antiproliferative Activity on LP-1, L-363 and JJN-3 Cells
(§2) All compounds tested were dissolved in DMSO and further dilutions were made in culture medium. Final DMSO concentration was 0.3% (v/v) in cell proliferation assays. Viability was assessed using CellTiter-Glo cell viability assay kit (Promega). The human LP-1, L-363 and JJN-3 cells (DSMZ) were cultured in RPMI 1640 medium supplemented with 2 mM L-glutamine, and 10% fetal calf serum (PAA). Cells were routinely kept as suspension cells at 37° C. in a humidified 5% CO2 atmosphere. Cells were passaged at a seeding density of 0.2×10^6/ml twice a week. Cells were seeded in black tissue culture treated 96-well plates (Perkin Elmer). Densities used for plating ranged from 2,000 to 6,000 cells per well in a total volume of 75 μl medium. After twenty four hours, drugs and/or solvents were added (25 μl) to a final volume of 100 μl. Following 72 hr of treatment plates were removed from the incubator and allowed to equilibrate to room temperature for approx 10 min. 100 μl CellTiter-Glo reagent was added to each well that was then covered (Perkin Elmer Topseal) and shaken on plate shaker for 10 min. Luminescence was measured on a HTS Topcount (Perkin Elmer). Within an experiment, the results for each treatment were the mean of 2 replicate wells. For initial screening purposes, compounds were tested using a 9 point dilution curve (serial 1:3 dilutions). For each experiment, controls (containing no drug) and a blank incubation (containing cells read at the time of compound addition) were run in parallel. The blank value was subtracted from all control and sample values. For each sample, the mean value for cell growth (in relative light units) was expressed as a percentage of the mean value for cell growth of the control.
In general terms: Cellular ATP, detected with luciferase, serves as a proxy for viable cell number.

For assay [1], the system named is P-IKKα levels in L363 cells. Kind of assay: Biological Assay B: effect of compounds on P-IKKα levels in L363 cells. The format is cell-based. The following applies: Homo sapiens, L-363; L363 cells with BAFF, 2 hr treatment; averaged values; read-out: IKKα Cellular IC50. The method, then: Effect of Compounds on P-IKKα Levels in L363 Cells
All compounds tested were dissolved in DMSO and further dilutions were made in culture medium. Final DMSO concentration was 1% (v/v) in cell assays. The human L363 cells (ATCC) were cultured in RPMI 1640 medium supplemented with GlutaMax and 10% fetal calf serum (PAA). Cells were routinely maintained at densities of 0.2×10^6 cells per ml-1×10^6 cells per ml at 37° C. in a humidified 5% CO2 atmosphere. Cells were passaged twice a week splitting back to obtain the low density. Cells were seeded in 96 well plates (Nunc 167008) at 2×10^6 per ml media in a volume of 75 μl per well plus 25 μl 1 μg/ml recombinant human B-cell activating factor (BAFF/BLyS/TNFSF13B). Seeded cells were incubated at 37° C. in a humidified 5% CO2 atmosphere for 24 hr. Drugs and/or solvents were added (20 μl) to a final volume of 120 μl. Following 2 hr treatment plates were removed from the incubator and cell lysis was achieved by the addition of 30 μl 5× lysis buffer followed by shaking on a plate shaker at 4° C. for 10 min. At the end of this incubation lysed cells were centrifuged at 800×g for 20 min at 4° C. and the lysate was assessed for P-IKKα levels by sandwich immuno-assay carried out in anti-rabbit antibody coated Mesoscale plates. Within an experiment, the results for each treatment were the mean of 2 replicate wells. For initial screening purposes, compounds were tested using an 8 point dilution curve (serial 1:3 dilutions). For each experiment, controls (containing MG132 and BAFF but no test drug) and a blank incubation (containing MG132 and BAFF and 10 μM ADS125117, a test concentration known to give full inhibition) were run in parallel. The blank incubation value was subtracted from all control and sample values. To determine the IC50 a sigmoidal curve was fitted to the plot of % inhibition of control P-IKKα levels versus Log10 compound concentration.

In assay [2] the target is T1, Recombinant Human NF-kappaB-inducing Kinase (NIK/MAP3K14) (Homo sapiens (Human), UniProt Q99558). Put plainly: Biological Assay A2: inhibition of auto-phosphorylation of recombinant human NIK/MAP3K14 (AlphaScreen). The format is biochemical. The following applies: 25 microM ATP, 0.2 nM GST-tagged NIK/MAP3K14, 1 h at 25° C., averaged values, read-out: Alpha-Screen IC50. The method, then: Inhibition of Auto-phosphorylation of Recombinant Human NF-kappaB-inducing Kinase (NIK/MAP3K14) Activity (AlphaScreen®)
T1 sequence (Q99558 whole entry): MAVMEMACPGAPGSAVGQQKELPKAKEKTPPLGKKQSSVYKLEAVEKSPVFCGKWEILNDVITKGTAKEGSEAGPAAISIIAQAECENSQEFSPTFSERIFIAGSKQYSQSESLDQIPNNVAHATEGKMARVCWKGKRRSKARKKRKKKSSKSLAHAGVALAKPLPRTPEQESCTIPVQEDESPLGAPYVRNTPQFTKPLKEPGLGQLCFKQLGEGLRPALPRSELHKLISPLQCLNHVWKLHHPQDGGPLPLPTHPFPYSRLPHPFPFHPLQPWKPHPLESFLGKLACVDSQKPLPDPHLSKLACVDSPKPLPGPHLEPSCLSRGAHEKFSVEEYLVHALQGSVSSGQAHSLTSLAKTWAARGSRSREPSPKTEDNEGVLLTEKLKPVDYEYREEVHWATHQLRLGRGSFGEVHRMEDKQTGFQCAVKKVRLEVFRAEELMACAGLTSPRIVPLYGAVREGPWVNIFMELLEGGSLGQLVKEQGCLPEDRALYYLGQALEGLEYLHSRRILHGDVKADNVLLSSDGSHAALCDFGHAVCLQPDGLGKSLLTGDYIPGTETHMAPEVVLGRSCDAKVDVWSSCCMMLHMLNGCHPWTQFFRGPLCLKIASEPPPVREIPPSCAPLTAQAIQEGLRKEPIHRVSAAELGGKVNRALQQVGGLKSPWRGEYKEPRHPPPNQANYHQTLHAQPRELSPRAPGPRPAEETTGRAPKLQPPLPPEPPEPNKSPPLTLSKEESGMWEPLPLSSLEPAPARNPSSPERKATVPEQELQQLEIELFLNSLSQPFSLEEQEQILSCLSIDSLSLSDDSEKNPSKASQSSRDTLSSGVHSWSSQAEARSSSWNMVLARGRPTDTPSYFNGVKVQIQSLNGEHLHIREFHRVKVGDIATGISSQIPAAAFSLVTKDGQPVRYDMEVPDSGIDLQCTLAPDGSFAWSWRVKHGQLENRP
NIK/MAP3K14 auto-phosphorylation activity was measured using the AlphaScreen® (αscreen) format (Perkin Elmer). All compounds tested were dissolved in dimethyl sulfoxide (DMSO) and further dilutions were made in assay buffer. Final DMSO concentration was 1% (v/v) in assays. Assay buffer was 50 mM Tris pH 7.5 containing 1 mM EGTA (ethylene glycol tetraacetic acid), 1 mM DTT (dithiothreitol), 0.1 mM Na3VO4, 5 mM MgCl2, 0.01% Tween® 20. Assays were carried out in 384 well Alphaplates (Perkin Elmer). Incubations consisted of compound, 25 microM Adenosine-5′-triphosphate (ATP), and 0.2 nM NIK/MAP3K14. Incubations were initiated by addition of GST-tagged NIK/MAP3K14 enzyme, carried out for 1 h at 25° C. and terminated by addition of stop buffer containing anti-phospho-IKK Ser176/180 antibody. Protein A Acceptor and Glutathione-Donor beads were added before reading using an EnVision® Multilabel Plate Reader (Perkin Elmer). Signal obtained in the wells containing blank samples was subtracted from all other wells and IC50's were determined by fitting a sigmoidal curve to % inhibition of control versus Log10 compound concentration.
In general terms: Bead proximity is the source of the signal in Alpha formats.

A further assay deals with L-363 cells. Kind of assay: Biological Assay C: antiproliferative activity on L-363 cells (CellTiter-Glo). The following applies: Homo sapiens, 72 hr of treatment, averaged values. The format is cell-based. As for the experimental part: as §1, §2
In another assay the test system is JJN-3 cells. Kind of assay: Biological Assay C: antiproliferative activity on JJN-3 cells (CellTiter-Glo). The class given is cell-based. The following applies: Homo sapiens, 72 hr of treatment, averaged values. The method, then:
as §1, §2

Assay [3] has as its target T1, Recombinant Human NF-kappaB-inducing Kinase (NIK/MAP3K14). Put plainly: Biological Assay A: inhibition of recombinant human NIK/MAP3K14 activity (MSD, MBP substrate). The following applies: 25 μM ATP, 10 nM NIK/MAP3K14, 1 h at 25° C.; averaged over all measurements on all batches; read-out: Biochemical (MSD MBP) IC50. The method, then: Inhibition of Recombinant Human NF-kappaB-inducing Kinase (NIK/MAP3K14) Activity
Assay buffer was 50 mM Tris pH 7.5 containing 1 mM EGTA (ethylene glycol tetraacetic acid), 1 mM DTT (dithiothreitol), 0.1 mM Na3VO4, 5 mM MgCl2, 0.01% Tween® 20. Assays were carried out in 384 well Mesoscale high binding plates which had been coated with myelin basic protein (MBP) and blocked with bovine serum albumin to prevent non-specific protein binding. All compounds tested were dissolved in dimethyl sulfoxide (DMSO) and further dilutions were made in assay buffer. Final DMSO concentration was 1% (v/v) in assays. Incubations consisted of compound (1% DMSO in control and blank wells), 25 μM Adenosine-5′-triphosphate (ATP), and 10 nM NIK/MAP3K14 substituting enzyme with buffer in the blank wells. Incubations were carried out for 1 h at 25° C. and were followed by washing and sequential incubation with rabbit anti-phospho-MBP and anti-rabbit Ig Sulfotag antibody before reading bound Sulfotag on a Mesoscale Discovery. Signal obtained in the wells containing blank samples was subtracted from all other wells and IC50's were determined by fitting a sigmoidal curve to % inhibition of control versus Log10 compound concentration.

With `CC(C)(O)C#Cc1cc2c(-c3cn[nH]c3)cn(CCC(C)(C)O)c2cn1` [Compound 20], the EC50 in the assay on LP-1 cells is greater than 30 µM; with L-363 cells, 2.26 µM; in the assay with JJN-3 cells, 2.65 µM. Besides, the IC50 in assay [1] was found to be 0.187 µM; in assay [2], 0.03 µM; in assay [3], 0.029 µM.

As for `CC(C)Cn1cc(-c2cn[nH]c2)c2cc(C#CC(C)(C)O)ncc21` [Compound 21], the EC50 stood at 1.12 µM in the assay on LP-1 cells, 0.427 µM in the assay with L-363 cells and 0.629 µM in the assay with JJN-3 cells. Also, the IC50 in assay [1] was determined as 0.119 µM; in assay [2], 0.025 µM; in assay [3], 0.055 µM.

In the case of `CC(C)(O)C#Cc1cc2c(-c3cn[nH]c3)cn(Cc3ccccc3)c2cn1` [Compound 22], the EC50 with LP-1 cells is 5.23 µM; with L-363 cells, 5.53 µM; in the assay on JJN-3 cells it was 6.08 µM. Moreover, the IC50 in assay [1] worked out at 1.77 µM; in assay [2] it was 0.232 µM; in assay [3], 0.224 µM.

With `CCCC(C)n1cc(-c2cn[nH]c2)c2cc(C#CC(C)(C)O)ncc21` (stereo not drawn) [Compound 23], the EC50 in the assay with LP-1 cells came out at 1.08 µM; with L-363 cells, 0.625 µM; in the assay with JJN-3 cells, 0.848 µM. Besides, the IC50 in assay [1] came to 0.302 µM; in assay [2], 0.043 µM; in assay [3], 0.057 µM.

As to `CCC(CC)n1cc(-c2cn[nH]c2)c2cc(C#CC(C)(C)O)ncc21` [Compound 24], the EC50 with LP-1 cells worked out at 0.647 µM; with L-363 cells, 0.519 µM; with JJN-3 cells, 0.744 µM. In addition, the IC50 in assay [1] worked out at 0.191 µM; in assay [2], 0.065 µM; in assay [3] it was 0.048 µM.

Consider `CC(C)(O)C#Cc1cc2c(-c3cn[nH]c3)cn(S(C)(=O)=O)c2cn1` [Compound 25], for which the values for the EC50 with LP-1 cells, in the assay with L-363 cells and with JJN-3 cells were 4.98 µM, 2.27 µM and 1.9 µM, respectively. Besides, the IC50 in assay [1] came to 0.46 µM; in assay [2], 0.055 µM; in assay [3], 0.014 µM.

As for `CCn1cc(-c2c[nH]nc2C)c2cc(C#CC(C)(C)O)ncc21` [Compound 30], the EC50 came out at 8.23 µM in the assay on LP-1 cells, 2.41 µM in the assay on L-363 cells and 1.69 µM in the assay on JJN-3 cells. For the same compound, the IC50 in assay [1] was 0.149 µM; in assay [2], 0.023 µM; in assay [3] it was 0.029 µM.

As for `CCn1cc(-c2c[nH]nc2C#N)c2cc(C#CC(C)(C)O)ncc21` [Compound 31], the EC50 in the assay with LP-1 cells amounted to 4.9 µM; in the assay with L-363 cells it was 3.94 µM; with JJN-3 cells, 2.38 µM. In addition, the IC50 stood at 0.214 µM in assay [1], 0.035 µM in assay [2] and 0.009 µM in assay [3].

As to `CC(C)(O)C#Cc1cc2c(-c3c[nH]nc3C#N)cn(CC(C)(C)O)c2cn1` [Compound 32], the values for the EC50 in the assay on LP-1 cells, in the assay on L-363 cells and with JJN-3 cells were greater than 30 µM, 22.6 µM and 5.67 µM, respectively. In addition, the results for the IC50 in assay [1], in assay [2] and in assay [3] were 1.01 µM, 0.044 µM and 0.068 µM, respectively.

Take `CN1CC(n2cc(-c3cn[nH]c3)c3cc(C#CC(C)(C)O)ncc32)C1` [Compound 34]: the figures for the EC50 in the assay with LP-1 cells, in the assay with L-363 cells and with JJN-3 cells were greater than 30 µM, 2.2 µM and 3.66 µM, respectively. Also, the IC50 in assay [1] is 0.377 µM; in assay [2], 0.171 µM; in assay [3], 0.076 µM.
